From PMC11110727, “Exploiting thiol-functionalized benzosiloxaboroles for achieving diverse substitution patterns – synthesis, characterization and biological evaluation of promising antibacterial agents” (RSC Medicinal Chemistry, 2024)
Values after ≈ are worked out from the molar mass of the structure shown. Like-named read-outs stand apart in the source and are kept apart here.

Assays:
[1] = system: S. maltophilia ATCC 13637; test: Antibacterial activity: MIC/MBC, MIC with PAβN, disc-diffusion; assay type: cell-based, Stenotrophomonas maltophilia; conditions: Stenotrophomonas maltophilia, ATCC13637; S. maltophilia ATCC 13637; read-out: MIC
Procedure, shortened: (§1)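 MICs were measured by CLSI broth microdilution in Mueller–Hinton II broth, with or without the efflux-pump inhibitor PAβN (20 μg mL^−1) and with 1 mM MgSO4 present. A reduction of at least 4-fold with PAβN was counted as significant. Disc diffusion followed EUCAST/CLSI, MBC followed CLSI, and compounds were dissolved in DMSO.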

[2] = system: S. maltophilia ATCC 12714; test: as above; assay type: cell-based, Stenotrophomonas maltophilia; conditions: Stenotrophomonas maltophilia, ATCC12714; S. maltophilia ATCC 12714; read-out: MIC
Procedure, shortened: as §1

P. aeruginosa ATCC 27853 = test: as above; assay type: cell-based; conditions: Pseudomonas aeruginosa, ATCC27853; P. aeruginosa ATCC 27853; read-out: MIC
Procedure, shortened: as §1

S. cerevisiae ATCC 9763 = test: Antifungal activity: MIC/MFC, disc-diffusion; assay type: cell-based, Saccharomyces cerevisiae; conditions: for diameter of inhibition zone: (-) = zone not observed, paper discs 9 mm; for MIC: read-out: MIC
Procedure, shortened: (§2)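 MIC and disc-diffusion testing used EUCAST and CLSI guidance, and bactericidal and fungicidal endpoints used CLSI methods. Before testing, yeasts were grown twice on Sabouraud dextrose agar and bacteria twice on TSA, 24–48 h at 30 °C. DMSO was the compound solvent, with linezolid (Gram-positive) and fluconazole (fungi) as references.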

C. albicans ATCC 90028 = test: Antifungal activity: MIC/MFC, disc-diffusion; assay type: cell-based, Candida albicans; conditions: for MIC: Candida albicans, ATCC90028, read-out: MIC
Procedure, shortened: as §2

[3] = system: B. bronchiseptica ATCC 4617; test: Antibacterial activity: MIC/MBC, disc-diffusion; assay type: cell-based, Bordetella bronchiseptica; conditions: Bordetella bronchiseptica, ATCC4617; B. bronchiseptica ATCC 4617; read-out: MIC
Procedure, shortened: as §1

[4] = system: S. aureus ATCC 43300 MRSA; test: Antibacterial activity: MIC/MBC determination and disc-diffusion; assay type: cell-based; conditions: Staphylococcus aureus, S. aureus ATCC 43300 MRSA; for MBC: read-out: MBC (first MBC where Eagle effect); for MIC: read-out: MIC
Procedure, shortened: (§3)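 Inhibitory and cidal concentrations (MIC; MBC/MFC) were measured following CLSI, with EUCAST also applied to MIC and disc-diffusion testing. Each strain was revived from −80 °C stocks by two passages at 30 °C for 24–48 h.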

A. baumannii ATCC 19606 = test: Antibacterial activity: MIC/MBC, MIC with PAβN, disc-diffusion; assay type: cell-based, Acinetobacter baumannii; conditions: Acinetobacter baumannii, ATCC19606; A. baumannii ATCC 19606; read-out: MIC
Procedure, shortened: as §1

S. aureus ATCC 6538P = test: Antibacterial activity: MIC/MBC determination and disc-diffusion; assay type: cell-based, Staphylococcus aureus; conditions: S. aureus ATCC 6538P; for diameter of inhibition zone: disc-diffusion, — = zone not observed; for MBC / MIC: Staphylococcus aureus, ATCC6538P; for MIC: read-out: MIC
Procedure, shortened: as §3

[5] = Saccharomyces cerevisiae, ATCC9763
[6] = read-out: MBC (first MBC where Eagle effect)

`C[Si]1(C)OB(O)c2cc(F)c(SC3CC(=O)N(c4ccc(Br)c(C(F)(F)F)c4)C3=O)c(F)c21` (stereo not drawn) [Compound 16, 1-(4-Bromo-3-(trifluoromethyl)phenyl)-3-((5,7-difluoro-3-hydroxy-1,1-dimethyl-1,3-dihydrobenzo[c][1,2,5]oxasilaborol-6-yl)thio)pyrrolidine-2,5-dione] gave an MIC [1] greater than 200 µg/mL, an MIC [2] greater than 200 µg/mL and an MIC (P. aeruginosa ATCC 27853) greater than 200 µg/mL. For the same compound, the “diameter of inhibition zone” value (S. cerevisiae ATCC 9763; S. cerevisiae ATCC 9763) was 35 mm, the MFC (S. cerevisiae ATCC 9763; Saccharomyces cerevisiae, ATCC9763, S. cerevisiae ATCC 9763) was 50 µg/mL (≈ 88.3 µM) and the MIC (S. cerevisiae ATCC 9763; [5]) was 6.25 µg/mL (≈ 11 µM). For the same compound, the “diameter of inhibition zone” value (C. albicans ATCC 90028; C. albicans ATCC 90028, (-) = zone not observed, paper discs 9 mm) was 25 mm, the MIC (C. albicans ATCC 90028) was 50 µg/mL (≈ 88.3 µM) and the MIC [3] was 200 µg/mL (≈ 353 µM). For the same compound, the MBC [4] was 100 µg/mL (≈ 177 µM), the MIC [4] was 50 µg/mL (≈ 88.3 µM) and the MIC (A. baumannii ATCC 19606) was greater than 200 µg/mL. For the same compound, the “diameter of inhibition zone” value (S. aureus ATCC 6538P) was 20 mm, the MBC (S. aureus ATCC 6538P; [6]) was 100 µg/mL (≈ 177 µM) and the MIC (S. aureus ATCC 6538P) was 50 µg/mL (≈ 88.3 µM).

`C[Si]1(C)OB(O)c2cc(F)c(SCCS(=O)(=O)c3ccccc3)c(F)c21` [Compound 20, 5,7-Difluoro-1,1-dimethyl-6-((2-(phenylsulfonyl)ethyl)thio)benzo[c][1,2,5]oxasilaborol-3(1H)-ol] gave an MIC [1] greater than 400 µg/mL, an MIC [2] greater than 400 µg/mL and an MIC (P. aeruginosa ATCC 27853) greater than 400 µg/mL. The “diameter of inhibition zone” value (S. cerevisiae ATCC 9763; S. cerevisiae ATCC 9763) was 16 mm, the MIC (S. cerevisiae ATCC 9763; [5]) was 400 µg/mL (≈ 965 µM) and the MIC (C. albicans ATCC 90028) was greater than 400 µg/mL. For the same compound, the MIC [3] was greater than 400 µg/mL, the MBC [4] was 200 µg/mL (≈ 483 µM) and the MIC [4] was 6.25 µg/mL (≈ 15.1 µM). For the same compound, the MIC (A. baumannii ATCC 19606) was greater than 400 µg/mL, the “diameter of inhibition zone” value (S. aureus ATCC 6538P) was 30 mm and the MBC (S. aureus ATCC 6538P; [6]) was 12.5 µg/mL (≈ 30.2 µM). For the same compound, the MIC (S. aureus ATCC 6538P) was 3.12 µg/mL (≈ 7.53 µM) and the MBC (S. aureus ATCC 6538P; value after the slash, read-out: second MBC (Eagle effect)) was 200 µg/mL (≈ 483 µM).

`C[Si]1(C)OB(O)c2cc(F)c(SCCC(=O)ON3C(=O)CCC3=O)c(F)c21` [Compound 5, 2,5-Dioxopyrrolidin-1-yl 3-((5,7-difluoro-3-hydroxy-1,1-dimethyl-1,3-dihydrobenzo-[c][1,2,5]oxasilaborol-6-yl)thio)propanoate] was tested, and the MIC [1] was greater than 400 µg/mL, the MIC [2] was greater than 400 µg/mL and the MIC (P. aeruginosa ATCC 27853) was greater than 400 µg/mL. For the same compound, the MIC (S. cerevisiae ATCC 9763; [5]) was greater than 400 µg/mL, the MIC (C. albicans ATCC 90028) was greater than 400 µg/mL and the MIC [3] was greater than 400 µg/mL. The MIC [4] was 400 µg/mL (≈ 963 µM), the MIC (A. baumannii ATCC 19606) was greater than 400 µg/mL and the “diameter of inhibition zone” value (S. aureus ATCC 6538P) was 15 mm. The MIC (S. aureus ATCC 6538P) was 400 µg/mL (≈ 963 µM).
